The results in this text go back to patent US7745636B2, “Hepatitis C virus inhibitors” (Bristol-Myers Squibb Company, priority 2006, dated 2010).

The test concerns HCV 1b-377-neo replicon cells. The test can be described thus: HCV Replicon assay, HCV 1b-377-neo replicon cells. Format: cell-based, HCV 1b genotype. As to conditions: Hepatitis C virus, Table 2, read-out: Range (EC50 against HCV 1b). In general terms: A replicon is a self-replicating genome or part of one, used to study replication in cells.
In general, EC50 refers to the concentration needed to bring the measured effect to its halfway point. Regarding `C[C@H](NC(=O)[C@@H](c1ccccc1)N(C)C)c1ncc(-c2cnc(-c3ccc(-c4cnc([C@@H]5CCCN5C(=O)[C@@H](c5ccccc5)N(C)C)[nH]4)cc3)cn2)[nH]1` [Example 152j-18, (2R)-2-(dimethylamino)-N-((1S)-1-(5-(5-(4-(2-((2S)-1-((2R)-2-(dimethylamino)-2-phenylacetyl)-2-pyrrolidinyl)-1H-imidazol-5-yl)phenyl)-2-pyrazinyl)-1H-imidazol-2-yl)ethyl)-2-phenylacetamide], the EC50 lay within 1 to 999 pM.
Take `COC(=O)N[C@@H](C(=O)N[C@@H](C)c1ncc(-c2cnc(-c3ccc(-c4cnc([C@@H]5CCCN5C(=O)[C@H](NC(=O)OC)c5ccccc5)[nH]4)cc3)cn2)[nH]1)c1ccccc1` [Example 152j-19, methyl ((1R)-2-((2S)-2-(5-(4-(5-(2-((1S)-1-(((2R)-2-((methoxycarbonyl)amino)-2-phenylace-tyl)amino)eth-yl)-1H-imidazol-5-yl)-2-pyrazinyl)phenyl)-1H-imidazol-2-yl)-1-pyrrolidinyl)-2-oxo-1-phenylethyl)carbamate]: the EC50 was 1 to 999 pM.
As for `C[C@@H](c1ncc(-c2ccc(-c3ncc(-c4cnc([C@@H]5CCCN5C(=O)[C@@H](c5ccccc5)N(C)C)[nH]4)cn3)cc2)[nH]1)N(C)C(=O)[C@@H](c1ccccc1)N(C)C` [Example 152j-20, (2R)-2-(dimethylamino)-N-((1S)-1-(5-(4-(5-(2-((2S)-1-((2R)-2-(dimethylamino)-2-phenylacetyl)-2-pyrrolidinyl)-1H-imidazol-5-yl)-2-pyrimidinyl)phenyl)-1H-imidaozl-2-yl)ethyl)-N-methyl-2-phenylacetamide], the EC50 was 1000 to 99000 pM.
For the compound `COC(=O)N[C@@H](C(=O)N(C)[C@@H](C)c1ncc(-c2ccc(-c3ncc(-c4cnc([C@@H]5CCCN5C(=O)[C@H](NC(=O)OC)c5ccccc5)[nH]4)cn3)cc2)[nH]1)c1ccccc1` [Example 152j-21, methyl ((1R)-2-((2S)-2-(5-(2-(4-(2-((1S)-1-(((2R)-2-((methoxycarbonyl)amino)-2-phenylacetyl)(methyl)amino)ethyl)-1H-imidazol-5-yl)phenyl)-5-pyrimidinyl)-1H-imidazol-2-yl)-1-pyrrolidinyl)-2-oxo-1-phenylethyl)carbamate], the EC50 fell in the range of 1 to 999 pM.
Next, `COC(=O)N[C@@H](C(=O)N[C@@H](C)c1ncc(-c2ccc(-c3ccc(-c4cnc([C@@H]5CCCN5C(=O)[C@H](NC(=O)OC)c5ccccc5)[nH]4)cc3)nc2)[nH]1)c1ccccc1` [Example 152j-22, methyl ((1R)-2-((2S)-2-(5-(4-(5-(2-((1S)-1-(((2R)-2-((methoxycarbonyl)amino)-2-phenylace-tyl)amino)eth-yl)-1H-imidazol-5-yl)-2-pyridinyl)phenyl)-1H-imidazol-2-yl)-1-pyrrolidinyl)-2-oxo-1-phenylethyl)carbamate]: 1 to 999 pM; `COC(=O)N[C@@H](C(=O)N[C@@H](C)c1ncc(-c2ccc(-c3ccc(-c4cnc([C@H](C)NC(=O)[C@H](NC(=O)OC)c5ccccc5)[nH]4)cn3)cc2)[nH]1)c1ccccc1` [Example 152j-23, methyl ((1R)-2-(((1S)-1-(5-(6-(4-(2-((1S)-1-(((2R)-2-((methoxycarbonyl)amino)-2-phenylace-tyl)amino)eth-yl)-1H-imidazol-5-yl)phenyl)-3-pyridinyl)-1H-imidazol-2-yl)ethyl)amino)-2-oxo-1-phenylethyl)carbamate]: 1 to 999 pM.
`C[C@H](NC(=O)[C@@H](c1ccccc1)N(C)C)c1ncc(-c2ccc(-c3ccc(-c4cnc([C@H](C)NC(=O)[C@@H](c5ccccc5)N(C)C)[nH]4)cn3)cc2)[nH]1` [Example 152j-24, (2R)-2-(dimethylamino)-N-((1S)-1-(5-(6-(4-(2-((1S)-1-(((2R)-2-(dimethylamino)-2-phenylace-tyl)amino)eth-yl)-1H-imidazol-5-yl)phenyl)-3-pyridinyl)-1H-imidazol-2-yl)ethyl)-2-phenylacetamide]: the EC50 lay within 1 to 999 pM.
